For one experiment, the target named is T1, PAD1 (Homo sapiens, UniProt Q9ULC6).
T1 construct: purchased Professor Hidenari Takahara (University of Ibaraki, Japan)
T1 sequence (Q9ULC6 1-663): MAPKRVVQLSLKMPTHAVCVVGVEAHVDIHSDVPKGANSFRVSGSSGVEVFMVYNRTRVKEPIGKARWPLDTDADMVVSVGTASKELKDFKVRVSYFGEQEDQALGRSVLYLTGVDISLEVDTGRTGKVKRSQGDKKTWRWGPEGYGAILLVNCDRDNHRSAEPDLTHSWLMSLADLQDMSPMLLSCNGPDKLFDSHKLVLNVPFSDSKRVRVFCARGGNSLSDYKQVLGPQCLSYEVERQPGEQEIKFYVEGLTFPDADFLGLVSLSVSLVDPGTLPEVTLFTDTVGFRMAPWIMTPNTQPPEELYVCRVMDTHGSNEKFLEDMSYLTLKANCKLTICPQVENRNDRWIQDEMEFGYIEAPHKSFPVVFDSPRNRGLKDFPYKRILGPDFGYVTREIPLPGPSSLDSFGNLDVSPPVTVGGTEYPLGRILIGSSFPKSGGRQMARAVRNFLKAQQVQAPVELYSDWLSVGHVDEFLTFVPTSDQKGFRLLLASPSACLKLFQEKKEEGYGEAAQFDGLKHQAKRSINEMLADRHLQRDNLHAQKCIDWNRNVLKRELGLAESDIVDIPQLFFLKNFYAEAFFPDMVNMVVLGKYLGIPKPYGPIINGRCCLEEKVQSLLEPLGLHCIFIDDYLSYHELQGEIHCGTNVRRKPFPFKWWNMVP
In words: Deimination of recombinant human filaggrin (Fil-His) by PAD1, immunodetection with AMC anti-citrulline antibody. Format: biochemical. To be noted: 5 mM streptomycin vs solvent alone (1% dimethylsulfoxide); 3 or 5 min incubation.

Experiment [1] concerns Reconstructed human epidermises. In words: Deiminated proteins in horny layer of reconstructed epidermises after topical gel, immunohistology (AMC). Type of experiment: cell-based. To be noted: gel containing 3% acefylline as sodium salt, 24 hours. As to the method:
Reconstructed human epidermises 0.33 cm^2 in size were grown at the air-liquid interface for 14 days. 5 mg/cm^2 of pre-formulas containing the various active agents was then applied homogeneously to their surface using a brush. Triplicates were carried out for a treatment period of 24 hours at 37° C. The epidermises were then divided: half were frozen in Tissue Tek and then 6 μm cryo-sections were made for immunohistology; the other half were dry frozen at −80° C. for the preparation of total protein extracts before analysis by Western blot.
The deiminated proteins were immunodetected as described above after incubation in modification buffer. Negative controls were prepared systematically by omitting the modification. After washing with water, the sections were incubated with AMC anti-citrulline antibody diluted to 1/1000. Finally, counter-staining was carried out with hematoxylin.

The values that follow come from patent publication US9566222B2, “Peptidyl arginine deiminase 1 and/or 3 activator compounds in the epidermis and uses thereof” (PIERRE FABRE DERMO-COSMETIQUE, priority 2011, dated 2017).

Molecules are shown by their SMILES.

Description for PAD1: 25 ng of Fil-His was incubated at 50° C. in the presence of 40 mU of PAD1 or PAD3 in deimination buffer (10 mM CaCl2, 5 mM dithiothreitol, 50 mM Tris-HCl pH 7.4). After a variable incubation period according to the PAD isoform (generally 2 to 5 minutes for PAD1 and 60 to 180 minutes for PAD3), the reaction was quenched by adding sample buffer. The proteins were then separated by SDS-PAGE and immunodetected by AHF11 anti-filaggrin monoclonal antibody and AMC modified anti-citrulline antibody (Millipore, Mollsheim, France) diluted to 1/5000.
The deimination of Fil-His (25 ng) was carried out as described above (paragraph A.3), in deimination buffer (10 mM CaCl2, 5 mM dithiothreitol, 50 mM Tris-HCl pH 7.4) at 50° C. in the presence of 40 mU of PAD1 or PAD3, for 0, 3, 5, 60 and 180 minutes. […] In certain cases, the active agents were diluted in water. After incubation, the proteins of the reaction mixture were immunodetected by AMC antibody. The immunodetection intensity was quantified by densitometry with the NIH ImageJ software.

On to `[H]/N=C(/N)N[C@H]1[C@H](O)[C@@H](O)[C@H](O[C@@H]2O[C@@H](C)[C@](O)(C=O)[C@H]2O[C@@H]2O[C@@H](CO)[C@H](O)[C@@H](O)[C@@H]2NC)[C@@H](N/C(N)=N\[H])[C@@H]1O` [streptomycin], for which the “Effect on PAD1 (AMC immunodetection intensity of deiminated Fil-His)” value on PAD1 is on record as “inhibited”.
For the compound `Cn1c(=O)c2c(ncn2CC(=O)[O-])n(C)c1=O.[Na+]` [acefylline in the form of sodium salt], the “Immunodetection intensity (AMC staining) of the horny layer vs control gel” value in experiment [1] was “stronger”.
